Results from US5061794A, “Cephalosporin derivatives, and antibacterial agents” (priority 1986, dated 1991).
Values after ≈ are worked out from the molar mass of the structure shown. Read-outs that look alike come from different tables or passages of the source.

Experiments:
E. coli CSH(RE45) = experiment: microbe, parasite or virus in culture; assay type: cell-based; conditions: Escherichia coli, 16 h, read-out: Minimum Inhibitory Concentration (MIC), *E. coli CSH(RE45), lactamase-producing strain; 10^6 CFU/ml
Summary of the method: (§1)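 MIC in μg/ml, read after 16 h at 37° C. on Mueller Hinton agar carrying graded compound levels; inoculum 10^6 CFU/ml from overnight Mueller Hinton broth.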

E. coli CSH2 (RK1) = experiment: microbe, parasite or virus in culture; assay type: cell-based; conditions: Escherichia coli, 16 h, read-out: Minimum Inhibitory Concentration (MIC), *E. coli CSH2 (RK1), lactamase-producing strain; 10^6 CFU/ml
Summary of the method: as §1

E. cloacae 963 = experiment: in vitro antibacterial activity, agar plate dilution method (MIC); assay type: cell-based; conditions: 10^6 CFU/ml
Summary of the method: as §1

E. cloacae Nek 39 = experiment: as above; assay type: cell-based; conditions: Enterobacter cloacae, NEK39, 16 h, read-out: Minimum Inhibitory Concentration (MIC), *E. cloacae Nek 39, lactamase-producing strain; 10^6 CFU/ml
Summary of the method: as §1

E. coli GN5482 = experiment: as above; assay type: cell-based; conditions: Escherichia coli, GN5482, 16 h
Summary of the method: as §1

E. coli NIHJ JC2 = experiment: as above; assay type: cell-based; conditions: Escherichia coli, NIHJJC2, 16 h, read-out: Minimum Inhibitory Concentration (MIC), E. coli NIHJ JC2, 10^6 CFU/ml, 37° C.
Summary of the method: as §1

K. oxytoca GN10650 = experiment: as above; assay type: cell-based; conditions: Klebsiella oxytoca, GN10650, 16 h, read-out: Minimum Inhibitory Concentration (MIC), *K. oxytoca GN10650, lactamase-producing strain; 10^6 CFU/ml
Summary of the method: as §1

K. pneumoniae No. 42 = experiment: as above; assay type: cell-based; conditions: Klebsiella pneumoniae, 10^6 CFU/ml
Summary of the method: as §1

K. pneumoniae PCI-602 = experiment: as above; assay type: cell-based; conditions: Klebsiella pneumoniae, PCI602, 16 h, read-out: Minimum Inhibitory Concentration (MIC), K. pneumoniae PCI-602; 10^6 CFU/ml
Summary of the method: as §1

M. morganii GN5407 = experiment: as above; assay type: cell-based; conditions: Morganella morganii, GN5407, 16 h, read-out: Minimum Inhibitory Concentration (MIC), *M. morganii GN5407, lactamase-producing strain; 10^6 CFU/ml
Summary of the method: as §1

P. vulgaris HX-19 = experiment: as above; assay type: cell-based; conditions: Proteus vulgaris, HX19, 16 h, P. vulgaris HX-19; 10^6 CFU/ml; read-out: Minimum Inhibitory Concentration (MIC)
Summary of the method: as §1

P. vulgaris No. 33 = experiment: as above; assay type: cell-based; conditions: Proteus vulgaris, NO.33, 16 h, read-out: Minimum Inhibitory Concentration (MIC), *P. vulgaris No. 33, lactamase-producing strain; 10^6 CFU/ml
Summary of the method: as §1

S. aureus 209P NIHJ-JC1 = experiment: as above; assay type: cell-based; conditions: Staphylococcus aureus, 16 h, 10^6 CFU/ml, 37° C., 16 hours
Summary of the method: as §1

S. marcescens IAM 1184 = experiment: as above; assay type: cell-based; conditions: Serratia marcescens, IAM1184, 16 h, read-out: Minimum Inhibitory Concentration (MIC)
Summary of the method: as §1

S. marcescens No. 16-2 = experiment: as above; assay type: cell-based; conditions: Serratia marcescens, NO.162, 16 h
Summary of the method: as §1

Ps. aeruginosa AK 109 = experiment: as above; assay type: cell-based, Pseudomonas aeruginosa; conditions: Pseudomonas aeruginosa, AK109, 16 h, 10^6 CFU/ml
Summary of the method: as §1

Ps. aeruginosa AKR17 = experiment: as above; assay type: cell-based, Pseudomonas aeruginosa; conditions: Pseudomonas aeruginosa, 16 h; Ps. aeruginosa AKR17; 10^6 CFU/ml; read-out: Minimum Inhibitory Concentration (MIC)
Summary of the method: as §1

Ps. aeruginosa IF03445 = experiment: as above; assay type: cell-based, Pseudomonas aeruginosa; conditions: Pseudomonas aeruginosa, 10^6 CFU/ml
Summary of the method: as §1

Ps. cepacia 23 = experiment: as above; assay type: cell-based, Pseudomonas cepacia; conditions: read-out: Minimum Inhibitory Concentration (MIC)
Summary of the method: as §1

A. calcoaceticus No. 4 = experiment: as above; assay type: cell-based, Acinetobacter calcoaceticus; conditions: Acinetobacter calcoaceticus, NO.4, 16 h, 10^6 CFU/ml
Summary of the method: as §1

[1] = Enterobacter cloacae, 963, 16 h, read-out: Minimum Inhibitory Concentration (MIC), E. cloacae 963
[2] = read-out: Minimum Inhibitory Concentration (MIC)
[3] = NO.42, 16 h, read-out: Minimum Inhibitory Concentration (MIC), *K. pneumoniae No. 42, lactamase-producing strain
[4] = read-out: Minimum Inhibitory Concentration (MIC), Ps. aeruginosa AK 109
[5] = IF03445, 16 h, read-out: Minimum Inhibitory Concentration (MIC), Ps. aeruginosa IF03445
[6] = Burkholderia cepacia, 16 h, Ps. cepacia 23, 10^6 CFU/ml
[7] = read-out: Minimum Inhibitory Concentration (MIC), A. calcoaceticus No. 4
[8] = read-out: Minimum Inhibitory Concentration (MIC), S. aureus 209P NIHJ-JC1
[9] = read-out: Minimum Inhibitory Concentration (MIC), *S. marcescens No. 16-2, lactamase-producing strain, 10^6 CFU/ml
[10] = Ps. aeruginosa AK 109, read-out: Minimum Inhibitory Concentration (MIC)
[11] = Enterobacter cloacae, 16 h, E. cloacae 963, read-out: Minimum Inhibitory Concentration (MIC)
[12] = S. marcescens IAM 1184, 10^6 CFU/ml

| SMILES | MIC (E. coli CSH(RE45)) [µg/mL] | MIC (E. coli CSH2 (RK1)) [µg/mL] | MIC (E. cloacae 963; [1]) [µg/mL] | MIC (E. cloacae Nek 39) [µg/mL] | MIC (E. coli GN5482; [2]) [µg/mL] | MIC (E. coli NIHJ JC2) [µg/mL] | MIC (K. oxytoca GN10650) [µg/mL] | MIC (K. pneumoniae No. 42; [3]) [µg/mL] | MIC (K. pneumoniae PCI-602) [µg/mL] | MIC (M. morganii GN5407) [µg/mL] | MIC (P. vulgaris HX-19) [µg/mL] | MIC (P. vulgaris No. 33) [µg/mL] | MIC (S. marcescens IAM 1184) [µg/mL] | MIC (Ps. aeruginosa AK 109; [4]) [µg/mL] | MIC (Ps. aeruginosa AKR17) [µg/mL] | MIC (Ps. aeruginosa IF03445; [5]) [µg/mL] | MIC (Ps. cepacia 23; [6]) [µg/mL] | MIC (A. calcoaceticus No. 4; [7]) [µg/mL] | MIC (S. aureus 209P NIHJ-JC1; [8]) [µg/mL] | MIC (S. marcescens No. 16-2; [9]) [µg/mL] | other results |
| --- | --- | --- | --- | --- | --- | --- | --- | --- | --- | --- | --- | --- | --- | --- | --- | --- | --- | --- | --- | --- | --- |
| CC(C)(O/N=C(\C(=O)N[C@@H]1C(=O)N2C(C(=O)O)=C(CSc3nc(-c4ccc(O)cc4)c(CC(=O)O)s3)CS[C@H]12)c1csc(N)n1)C(=O)O [compound 19, reference compound] | 1.56 (≈ 2.12 µM) | 1.56 (≈ 2.12 µM) | 3.12 (≈ 4.25 µM) | 6.25 (≈ 8.51 µM) | 3.12 (≈ 4.25 µM) | 3.12 (≈ 4.25 µM) | 1.56 (≈ 2.12 µM) | 1.56 (≈ 2.12 µM) | 0.39 (≈ 0.531 µM) | 1.56 (≈ 2.12 µM) | < 0.006 | 0.05 (≈ 0.068 µM) | 0.78 (≈ 1.06 µM) | 6.25 (≈ 8.51 µM) | 25 (≈ 34 µM) | 12.5 (≈ 17 µM) | 0.2 (≈ 0.272 µM) | 6.25 (≈ 8.51 µM) | – | – | MIC (S. aureus 209P NIHJ-JC1; S. aureus 209P NIHJ-JC1, read-out: Minimum Inhibitory Concentration (MIC)): 50 µg/mL (≈ 68 µM); MIC (S. marcescens No. 16-2; *S. marcescens No. 16-2, lactamase-producing strain, 10^6 CFU/ml, read-out: Minimum Inhibitory Concentration (MIC)): 25 µg/mL (≈ 34 µM) |
| C#CCO/N=C(\C(=O)N[C@@H]1C(=O)N2C(C(=O)O)=C(CSc3nnc(-c4ccc(O)c(O)c4)o3)CS[C@H]12)c1csc(N)n1 [compound 9, sodium 7β-[2-(2-aminothiazol-4-yl)-2-(2-propynyloxyimino)acetamido]-3-[5-(3,4-dihydroxyphenyl)-1,3,4-oxadiazol-2-yl]thiomethyl-3-cephem-4carboxylate] | 0.0125 | 0.0125 | 0.0125 | 0.1 | 0.39 | 0.1 | 6.25 | 0.025 | 0.0125 | 0.0125 | < 0.006 | 0.025 | 0.0125 | – | > 100 | 1.56 | 0.05 | 0.1 | 0.78 | 6.25 | MIC (Ps. aeruginosa AK 109; [10]): 0.2 µg/mL |
| C#CCON=C(C(=O)NC1C(=O)N2C(C(=O)O)=C(CSc3nc(C(=O)O)c(-c4ccc(O)c(O)c4)s3)CSC12)c1csc(N)n1 (stereo not drawn) [Ex. 56, disodium 78-[2-(2-aminothiazol-4-yl)-2-proparqyloxyiminoacetamido]-3-[4-carboxylate-5-(3,4-dihydroxyphenyl)thiazol-2-yl]thiomethyl-3-cephem-4-carboxylate] | 0.025 | 0.0125 | – | 0.78 | 3.12 | 0.78 | 12.5 | 0.1 | < 0.006 | 0.05 | < 0.006 | 0.05 | – | 6.25 | 100 | 3.12 | < 0.006 | – | 6.25 | 6.25 | MIC (E. cloacae 963; [11]): 0.2 µg/mL; MIC (S. marcescens IAM 1184; [12]): 0.05 µg/mL; MIC (A. calcoaceticus No. 4; A. calcoaceticus No. 4, read-out: Minimum Inhibitory Concentration (MIC)): 0.2 µg/mL |
| C#CCO/N=C(\C(=O)N[C@@H]1C(=O)N2C(C(=O)O)=C(CSc3nnc(-c4ccc(O)c(O)c4)s3)CS[C@H]12)c1csc(N)n1 [Ex. 31, sodium 7β-[2-(2-aminothiazol-4-yl)-2-proparqyloxyiminoacetamido]-3-[5-(3,4-dihvdroxyphenyl)-1,3,4-thiadiazol-2-yl]thiomethyl-3-cephem-4-carboxylate] | 0.0125 | < 0.006 | 0.0125 | 0.2 | 0.39 | 0.1 | 0.78 | – | < 0.006 | 0.0125 | < 0.006 | 0.025 | 0.0125 | – | 100 | 0.78 | – | 0.1 | 0.78 | – | MIC (K. pneumoniae No. 42; 16 h, *K. pneumoniae No. 42, lactamase-producing strain, read-out: Minimum Inhibitory Concentration (MIC)): < 0.006 µg/mL; MIC (S. marcescens No. 16-2; [2]): 0.39 µg/mL; MIC (Ps. aeruginosa AK 109; [10]): 0.2 µg/mL; MIC (Ps. cepacia 23; Burkholderia cepacia, 23, 16 h): 0.0125 µg/mL |
| C=CCO/N=C(\C(=O)N[C@@H]1C(=O)N2C(C(=O)O)=C(CSc3nnc(-c4ccc(O)c(O)c4)o3)CS[C@H]12)c1csc(N)n1 [Ex. 8, sodium 7β-[2-allyloxyimino-2-(2-aminothiazol-4-yl)acetamido]-3-[5-(3,4-dihydroxyphenyl)-1,3,4-oxadiazol-2-yl]thiomethyl-3-cephem-4carboxylate] | 0.78 | < 0.006 | – | 0.05 | 0.39 | 0.1 | 3.12 | 0.05 | < 0.006 | 0.0125 | < 0.006 | 0.0125 | – | – | 100 | – | 0.025 | 0.1 | 0.78 | 1.56 | MIC (E. cloacae 963; [11]): < 0.006 µg/mL; MIC (S. marcescens IAM 1184; [12]): 0.0125 µg/mL; MIC (Ps. aeruginosa AK 109; [10]): 0.2 µg/mL; MIC (Ps. aeruginosa IF03445; 16 h, Ps. aeruginosa IF03445, read-out: Minimum Inhibitory Concentration (MIC)): 0.2 µg/mL |
| C=CCON=C(C(=O)NC1C(=O)N2C(C(=O)O)=C(CSc3nc(-c4ccc(O)c(O)c4)cs3)CSC12)c1csc(N)n1 (stereo not drawn) [Ex. 42, sodium 78-[2-allyloxyimino-2-(2-aminothiazol-4-yl)acetamido]-3-[4-(3,4-dihydroxyphenyl)-thiazol-2-yl]thiomethyl-3-cephem-4-carboxylate] | 0.025 | 0.025 | 0.05 | 0.39 | – | 0.2 | 3.12 | 0.2 | < 0.006 | 0.05 | 0.0125 | 0.05 | – | 0.78 | 100 | 0.78 | 0.1 | 0.39 | 0.78 | 6.25 | MIC (E. coli GN5482; read-out: Minimum Inhibitory Concentration (MIC), *E. coli GN5482, lactamase-producing strain, 10^6 CFU/ml): 0.78 µg/mL; MIC (S. marcescens IAM 1184; [12]): 0.05 µg/mL |
